# Test results reported in patent US11643417B2, “Tetrahydrobenzofurodiazepinone compound and pharmaceutical use thereof” (priority 2020, dated 2023).
# pKi: −log10 of the molar value. Like-named read-outs stand apart in the source and are kept apart here.
# How the values were obtained:
# [1] = tested on: mouse LN model animals; settings: Non-Patent Document 18; cited from earlier work
# [2] = tested on: cells derived from chronic myelogenous leukemia; settings: Non-Patent Document 15; cited from earlier work
# [3] = tested on: mouse cancer-bearing model; settings: Non-Patent Documents 16 and 17; cited from earlier work
# [4] = molecular target: human Pim-1 (Homo sapiens (Human), UniProt P11309); test: biochemical; format: biochemical; settings: Ki converted from IC50, purified human Pim-1, Pim2tide substrate, ADP-Glo; for pKi: read-out: hPim1 Ki
# Sequence of human Pim-1 (P11309 whole entry): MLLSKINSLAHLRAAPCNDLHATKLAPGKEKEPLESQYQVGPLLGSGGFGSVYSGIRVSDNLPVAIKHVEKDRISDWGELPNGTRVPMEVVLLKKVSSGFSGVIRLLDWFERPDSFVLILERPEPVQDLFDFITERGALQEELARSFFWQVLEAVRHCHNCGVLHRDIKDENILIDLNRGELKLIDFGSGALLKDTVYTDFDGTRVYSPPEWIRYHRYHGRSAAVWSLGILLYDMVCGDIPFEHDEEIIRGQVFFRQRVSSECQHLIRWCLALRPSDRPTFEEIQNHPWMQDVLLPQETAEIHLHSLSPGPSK
SMILES,pKi [4],further results
O=C1NC(=O)/C(=C/c2cccc(C(F)(F)F)c2)S1 [SMI-4a],–,glomerular damage [1]: reduce glomerular damage; mortality [1]: improve mortality; urinary albumin/creatinine ratio [1]: reduce urinary albumin/creatinine ratio; growth inhibitory and apoptosis-inducing effects [2]: growth inhibitory and apoptosis-inducing effects
C[C@H]1CN(c2c(NC(=O)c3ccc(F)c(-c4c(F)cccc4F)n3)cnc3c2CC[C@H]3O)C[C@@H](N)[C@@H]1O [INCB053914],–,tumor growth inhibitory effect [3]: tumor growth inhibitory effect
O=C1NCCN(CC[C@H]2CC[C@@](O)(C(F)(F)F)CC2)c2c1oc1ccc(C(F)(F)F)cc21 [Example 84],9.63,–
O=C1NC2(CC2)CN(CC(F)(F)[C@H]2CC[C@H](O)CC2)c2c1oc1ccc(C(F)(F)F)cc21 [Example 149],10.47,–
"CC1(O)CCOC(C(F)(F)CN2CCNC(=O)c3oc4ccc(C(F)(F)F)cc4c32)C1 (racemic) [Example 12, 1-(2,2-difluoro-2-(4-hydroxy-4-methyltetrahydro-2H-pyran-2-yl)ethyl)-9-(trifluoromethyl)-1,2,3,4-tetrahydro-5H-benzofuro[3,2-e][1,4]diazepin-5-one]",–,Ki ([4]; hPim1 Ki (nM)): 0.0388 nM
CN1CCN(CC(F)(F)C2CC(O)(CO)CCO2)c2c(oc3ccc(C(F)(F)F)cc23)C1=O (stereo not shown) [Example 21],9.48,–
N#CCC1COCC(CCN2CCNC(=O)c3oc4ccc(C(F)(F)F)cc4c32)O1 (racemic) [Example 139],8.43,–
N#CC1(CO)CCC(CCN2CCNC(=O)c3oc4ccc(C(F)(F)F)cc4c32)CC1 (stereo not shown) [Example 163],10.35,–
"O=C1NCCN(CC(F)(F)C2COCCO2)c2c1oc1ccc(C(F)(F)F)cc21 (single isomer, unassigned) [Example 68]",10.34,–
O=C1NCCN(CC2(F)COC2)c2c1oc1ccc(C(F)(F)F)cc21 [Example 16],7.96,–
O=C1NCCN(CCC2CC(CO)C2)c2c1oc1ccc(C(F)(F)F)cc21 (stereo not shown) [Example 117],9.10,–
C[C@H]1CN(CC[C@H]2CC[C@](O)(CO)CC2)c2c(oc3ccc(C(F)(F)F)cc23)C(=O)N1 [Example 2-06],10.13,–
"CC1(O)CCOC(C(F)(F)CN2CCNC(=O)c3oc4ccc(C(F)(F)F)cc4c32)C1 (stereo not shown) [Example 66, 1-(2,2-difluoro-2-(4-hydroxy-4-methyltetrahydro-2H-pyran-2-yl)ethyl)-9-(trifluoromethyl)-1,2,3,4-tetrahydro-5H-benzofuro[3,2-e][1,4]diazepin-5-one]",10.55,–
CC1COC(CCN2CCNC(=O)c3oc4ccc(C(F)(F)F)cc4c32)CC1O (stereo not shown) [Example 3],9.22,–
CNC(=O)C1CCC(CCN2CCNC(=O)c3oc4ccc(C(F)(F)F)cc4c32)CC1 (stereo not shown) [Example 100],9.00,–
"CC1(O)CCOC(C(F)(F)CN2CCNC(=O)c3oc4ccc(C(F)(F)F)cc4c32)C1 (stereo not shown) [Example 59, 1-(2,2-difluoro-2-(4-hydroxy-4-methyltetrahydro-2H-pyran-2-yl)ethyl)-9-(trifluoromethyl)-1,2,3,4-tetrahydro-5H-benzofuro[3,2-e][1,4]diazepin-5-one]",9.97,–
O=C1NCCN(CC(F)(F)[C@H]2CC[C@H](O)CC2)c2c1oc1ccc(C(F)(F)F)cc21 [Example 165],9.98,–
COC(C1CC(O)(CO)C1)C1(CN2CCNC(=O)c3oc4ccc(C(F)(F)F)cc4c32)CC1 (racemic) [Example 23],9.09,–
C[C@@H]1CO[C@@H](CCN2CCNC(=O)c3oc4ccc(C(F)(F)F)cc4c32)CO1 [Example 44],8.98,–
O=C1NCCN(CCC2CC3CCC(C2)O3)c2c1oc1ccc(C(F)(F)F)cc21 (stereo not shown) [Example 81],8.95,–
"O=C1NCCN(CC(F)(F)C2CC(O)(C(F)F)CCO2)c2c1oc1ccc(C(F)(F)F)cc21 (single isomer, unassigned) [Example 53]",10.04,–
O=C1NCCN(CCC2CCC(O)(C3(O)CC3)CC2)c2c1oc1ccc(C(F)(F)F)cc21 (stereo not shown) [Example 111],10.96,–
